Assay results from patent US20210252151A1, “METHOD FOR OPTICAL OPENING OF THE BLOOD-BRAIN BARRIER” (BOARD OF REGENTS, THE UNIVERSITY OF TEXAS SYSTEM, priority 2018, published 2021).

Tested on: BBB of C57BL/6 mice
Experiment: Delivery of functional molecules to the brain after BBB transient opening
Assay type: in vivo, mouse
Conditions: after TJ-targeting AuNP and ps laser (25 mJ/cm^2, 1 pulse)
Procedure: To measure the penetration of functional molecule, the anti-cancer drug, doxorubicin, and antibody (human IgG) instead of Evans blue dye were inject intravenously. To test endogenous mouse IgG extravasation, the secondary antibody was incubated with mouse brain tissue sections, followed by fluorescent signal detection.

Structure (SMILES): COc1cccc2c1C(=O)c1c(O)c3c(c(O)c1C2=O)C[C@@](O)(C(=O)CO)C[C@@H]3O[C@H]1C[C@H](N)[C@H](O)[C@H](C)O1 [Dox, doxorubicin]
- crossing of the BBB (extravasation into brain): obvious Dox across the BBB
